Experimental findings from ChEMBL document CHEMBL3856280, “Targeting the HSP60/10 chaperonin systems of Trypanosoma brucei as a strategy for treating African sleeping sickness” (Bioorg Med Chem Lett, 2016) are described below.

Data set [1] addresses T1, E. coli GroEL/ES (Escherichia coli, UniProt P0A6F5). Description: Inhibition of Escherichia coli GroEL/GroES-ATPase activity expressed in Escherichia coli DH5alpha/BL21 (DE3) assessed as inhibition of denatured MDH refolding preincubated for 10 mins followed by ATP addition measured after 20 to 40 mins by malachite green dye based fluorescence assay.
In data set [2] the target is T1, E. coli GroEL/ES. Briefly: Inhibition of Escherichia coli GroEL/GroES expressed in Escherichia coli DH5alpha/BL21 (DE3) assessed as inhibition of denatured MDH refolding preincubated for 10 mins followed by ATP addition measured after 20 to 40 mins by fluorescence based assay.
The subject of data set [3] is Trypanosoma brucei brucei. Briefly: Antitrypanosomal activity against Trypanosoma brucei brucei Lister 427 VSG 221 [TetR T7RNAP] transgenic bloodstream forms assessed as reduction in cell viability after 48 hrs by alamar blue assay. The format is functional. The conditions noted are these: Lister 427 VSG 221, 48 h.
Data set [4] addresses T2, HSP60/HSP10 (Homo sapiens, UniProt P10809). Briefly: Inhibition of human mitochondrial HSP60/HSP10 expressed in Escherichia coli DH5alpha/BL21 (DE3) assessed as inhibition of denatured MDH refolding preincubated for 10 mins followed by ATP addition measured after 40 to 60 mins by fluorescence based assay.
Data set [5] addresses T2, HSP60/HSP10. Description: Inhibition of human mitochondrial HSP60/HSP10-ATPase activity expressed in Escherichia coli DH5alpha/BL21 (DE3) assessed as inhibition of denatured MDH refolding preincubated for 10 mins followed by ATP addition measured after 40 to 60 mins by malachite green dye based fluorescence assay.
The nature of data set [6]: Cytotoxicity against human THLE3 cells assessed as reduction in cell viability after 48 hrs by alamar blue assay. The format is toxicity, cell-based.
Data set [7] is described as follows: Inhibition of pig heart native MDH reporter reaction after 20 to 40 mins by fluorescence based assay. The arrangement: species or system Sus scrofa.
The nature of data set [8]: Cytotoxicity against HEK293 cells assessed as reduction in cell viability after 48 hrs by alamar blue assay. Format: toxicity, cell-based. The conditions noted are these: human.

T2 sequence (P10809 whole entry): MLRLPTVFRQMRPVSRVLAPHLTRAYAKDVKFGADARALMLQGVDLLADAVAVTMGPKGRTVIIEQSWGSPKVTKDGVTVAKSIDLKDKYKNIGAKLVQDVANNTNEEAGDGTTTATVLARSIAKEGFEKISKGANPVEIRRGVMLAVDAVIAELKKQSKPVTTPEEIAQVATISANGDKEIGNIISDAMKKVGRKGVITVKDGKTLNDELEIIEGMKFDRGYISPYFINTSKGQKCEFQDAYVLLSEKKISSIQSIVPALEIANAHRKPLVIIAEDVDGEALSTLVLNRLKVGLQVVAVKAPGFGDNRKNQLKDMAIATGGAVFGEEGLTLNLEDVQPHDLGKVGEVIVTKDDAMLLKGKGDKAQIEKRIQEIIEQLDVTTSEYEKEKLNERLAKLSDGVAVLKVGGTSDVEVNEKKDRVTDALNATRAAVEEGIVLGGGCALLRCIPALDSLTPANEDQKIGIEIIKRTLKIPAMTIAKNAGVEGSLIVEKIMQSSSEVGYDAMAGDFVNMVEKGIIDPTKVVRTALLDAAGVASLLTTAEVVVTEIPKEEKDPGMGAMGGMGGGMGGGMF
T2 sequence (P61604 whole entry, further chain): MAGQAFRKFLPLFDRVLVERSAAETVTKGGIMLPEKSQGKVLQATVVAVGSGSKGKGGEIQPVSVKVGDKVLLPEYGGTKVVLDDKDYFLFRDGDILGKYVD
T1 sequence (P0A6F5 whole entry, looked up): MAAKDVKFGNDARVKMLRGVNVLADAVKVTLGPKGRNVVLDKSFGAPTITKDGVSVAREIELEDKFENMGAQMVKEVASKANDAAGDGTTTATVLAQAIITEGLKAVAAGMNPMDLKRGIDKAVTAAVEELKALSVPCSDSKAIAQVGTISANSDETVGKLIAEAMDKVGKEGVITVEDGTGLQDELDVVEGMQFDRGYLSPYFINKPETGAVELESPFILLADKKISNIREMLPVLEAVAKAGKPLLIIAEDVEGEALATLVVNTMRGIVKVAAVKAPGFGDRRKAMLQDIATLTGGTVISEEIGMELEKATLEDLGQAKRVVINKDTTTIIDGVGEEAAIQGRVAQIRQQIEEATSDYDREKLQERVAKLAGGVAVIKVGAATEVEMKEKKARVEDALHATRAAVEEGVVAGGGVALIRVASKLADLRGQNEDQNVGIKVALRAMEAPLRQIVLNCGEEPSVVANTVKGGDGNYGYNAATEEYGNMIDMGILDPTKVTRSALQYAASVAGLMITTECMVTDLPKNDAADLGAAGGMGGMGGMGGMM

On to `O=S(=O)(Nc1ccc(-c2nc3cc(NS(=O)(=O)c4ccc5nsnc5c4)ccc3o2)cc1)c1ccc2nsnc2c1`, for which the IC50 in data set [1] is 1.7 µM; in data set [2], 3.7 µM; in data set [4], 62 µM; in data set [5] it was 127 µM; in data set [7], > 63 µM. The EC50 in data set [3] is > 42 µM. Further, the EC50 at 48 h in data set [6] worked out at 45 µM; in data set [8], 76 µM.
As for `O=S(=O)(Nc1ccc(-c2nc3cc(NS(=O)(=O)c4cccc(Br)c4)ccc3o2)cc1)c1cccc(Br)c1`, the IC50 in data set [1] is 45 µM; in data set [2], 23 µM; in data set [4], > 100 µM; in data set [5], > 250 µM; in data set [7] it was > 63 µM. Further, the half-maximal effective concentration (EC50) in data set [3] came to 8 µM. Further, the figures for the EC50 at 48 h in data set [6] and in data set [8] were 21 µM and 25 µM, respectively.
For `O=C(O)c1ccc(S(=O)(=O)Nc2ccc(-c3nc4cc(NS(=O)(=O)c5ccc(C(=O)O)cc5)ccc4o3)cc2)cc1`, the 50% inhibitory concentration (IC50) in data set [1] is > 250 µM; in data set [2], 83 µM; in data set [4], > 100 µM; in data set [5], > 250 µM; in data set [7], > 63 µM. Moreover, the concentration giving a half-maximal response (EC50) in data set [3] is > 42 µM. The EC50 at 48 h in data set [6] and in data set [8] was > 100 µM throughout.
With `NCCCC(N)(C(=O)O)C(F)F` (stereo unspecified) [EFLORNITHINE], the half-maximal inhibitory concentration (IC50) in data set [1] is > 250 µM; in data set [2] it was > 100 µM; in data set [4], > 100 µM; in data set [5], > 250 µM; in data set [7], > 63 µM. Further, the 50% effective concentration (EC50) in data set [3] is > 42 µM. The concentration giving a half-maximal response (EC50) at 48 h in data set [6] and in data set [8] was > 100 µM throughout.
With `CS(=O)(=O)Nc1ccc(-c2nc3cc(NS(C)(=O)=O)ccc3o2)cc1`, the IC50 is > 250 µM in data set [1]; > 100 µM in data set [2]; > 100 µM in data set [4]; > 250 µM in data set [5]; > 63 µM in data set [7]. Besides, in data set [3], the concentration giving a half-maximal response (EC50) is > 42 µM. In addition, the half-maximal effective concentration (EC50) at 48 h in data set [6] and in data set [8] was > 100 µM throughout.
Take `O=[N+]([O-])c1cccc(S(=O)(=O)Nc2ccc(-c3nc4cc(NS(=O)(=O)c5cccc([N+](=O)[O-])c5)ccc4o3)cc2)c1`: the IC50 in data set [1] is > 250 µM; in data set [2] it was 11 µM; in data set [4] it was 60 µM; in data set [5] it was > 250 µM; in data set [7], > 63 µM. In data set [3], the EC50 was 11 µM. Also, the concentration for a half-maximal effect (EC50) at 48 h in data set [6] came to 37 µM; in data set [8] it was 46 µM.
In the case of `COC(=O)c1cccc(S(=O)(=O)Nc2ccc(-c3nc4cc(NS(=O)(=O)c5cccc(C(=O)OC)c5)ccc4o3)cc2)c1`, the IC50 in data set [1] is > 250 µM; in data set [2], 11 µM; in data set [4] it was 95 µM; in data set [5], > 250 µM; in data set [7], > 63 µM. The half-maximal effective concentration (EC50) in data set [3] was > 42 µM. Moreover, the EC50 at 48 h in data set [6] was 49 µM; in data set [8] it was > 100 µM.
`CC1CS(=O)(=O)CCN1/N=C/c1ccc([N+](=O)[O-])o1` (stereo unspecified) [NIFURTIMOX]: the 50% inhibitory concentration (IC50) was > 250 µM in data set [1]; > 100 µM in data set [2]; > 100 µM in data set [4]; > 250 µM in data set [5]; > 63 µM in data set [7]. The EC50 in data set [3] was found to be 2.8 µM. The 50% effective concentration (EC50) at 48 h in data set [6] and in data set [8] was > 100 µM each time.
Take `O=S(=O)(Nc1ccc(-c2nc3cc(NS(=O)(=O)c4ccccc4F)ccc3o2)cc1)c1ccccc1F`: the IC50 is > 250 µM in data set [1]; 22 µM in data set [2]; 77 µM in data set [4]; > 250 µM in data set [5]; > 63 µM in data set [7]. In data set [3], the EC50 was 19 µM. In addition, the EC50 at 48 h in data set [6] is 55 µM; in data set [8], 31 µM.
In the case of `N#Cc1cccc(S(=O)(=O)Nc2ccc(-c3nc4cc(NS(=O)(=O)c5cccc(C#N)c5)ccc4o3)cc2)c1`, the 50% inhibitory concentration (IC50) in data set [1] is 4.1 µM; in data set [2], 7.6 µM; in data set [4] it was 91 µM; in data set [5], > 250 µM; in data set [7], > 63 µM. Further, in data set [3], the EC50 was found to be 39 µM. Moreover, the figures for the EC50 at 48 h in data set [6] and in data set [8] were 91 µM and 45 µM, respectively.
Turning to `O=[N+]([O-])c1ccc(S(=O)(=O)Nc2ccc(-c3nc4cc(NS(=O)(=O)c5ccc([N+](=O)[O-])cc5)ccc4o3)cc2)cc1`, the IC50 in data set [1] was > 250 µM; in data set [2] it was 26 µM; in data set [4] it was 65 µM; in data set [5] it was > 250 µM; in data set [7], > 63 µM. The EC50 in data set [3] came out at 15 µM. Moreover, the values for the 50% effective concentration (EC50) at 48 h in data set [6] and in data set [8] were 36 µM and 59 µM, respectively.
As for `O=S(=O)(Nc1ccc(-c2nc3cc(NS(=O)(=O)c4cccs4)ccc3o2)cc1)c1cccs1`, the IC50 in data set [1] was 6.7 µM; in data set [2], 4.6 µM; in data set [4] it was 57 µM; in data set [5], > 250 µM; in data set [7], > 63 µM. For the same compound, in data set [3], the EC50 is 17 µM. The 50% effective concentration (EC50) at 48 h is 44 µM in data set [6] and 26 µM in data set [8].
As to `COc1cccc(S(=O)(=O)Nc2ccc(-c3nc4cc(NS(=O)(=O)c5cccc(OC)c5)ccc4o3)cc2)c1`, the 50% inhibitory concentration (IC50) was > 250 µM in data set [1]; 48 µM in data set [2]; > 100 µM in data set [4]; > 250 µM in data set [5]; > 63 µM in data set [7]. In data set [3], the 50% effective concentration (EC50) is 5.1 µM. In addition, the half-maximal effective concentration (EC50) at 48 h in data set [6] came to 15 µM; in data set [8] it was 28 µM.
Consider `O=S(=O)(Nc1ccc(-c2nc3cc(NS(=O)(=O)c4cccc(C(F)(F)F)c4)ccc3o2)cc1)c1cccc(C(F)(F)F)c1`, for which the 50% inhibitory concentration (IC50) in data set [1] is 216 µM; in data set [2] it was 15 µM; in data set [4] it was > 100 µM; in data set [5] it was > 250 µM; in data set [7] it was > 63 µM. Further, the 50% effective concentration (EC50) in data set [3] came to 4.8 µM. Moreover, the EC50 at 48 h in data set [6] stood at 19 µM; in data set [8], 15 µM.
`O=S(=O)(Nc1ccc(-c2nc3cc(NS(=O)(=O)c4ccc(Cl)cc4)ccc3o2)cc1)c1ccc(Cl)cc1`: the IC50 in data set [1] is 35 µM; in data set [2] it was 23 µM; in data set [4], 96 µM; in data set [5], > 250 µM; in data set [7], > 63 µM. The 50% effective concentration (EC50) in data set [3] was determined as 3.2 µM. Besides, the values for the EC50 at 48 h in data set [6] and in data set [8] were 18 µM and 13 µM, respectively.
Take `COC(=O)c1ccc(S(=O)(=O)Nc2ccc(-c3nc4cc(NS(=O)(=O)c5ccc(C(=O)OC)cc5)ccc4o3)cc2)cc1`: the concentration for half-maximal inhibition (IC50) was 91 µM in data set [1]; 26 µM in data set [2]; 87 µM in data set [4]; > 250 µM in data set [5]; > 63 µM in data set [7]. In data set [3], the concentration giving a half-maximal response (EC50) worked out at 23 µM. For the same compound, the concentration for a half-maximal effect (EC50) at 48 h in data set [6] and in data set [8] was > 100 µM throughout.
Take `O=S(=O)(Nc1ccc(-c2nc3cc(NS(=O)(=O)c4ccc(O)cc4)ccc3o2)cc1)c1ccc(O)cc1`: the half-maximal inhibitory concentration (IC50) amounted to 0.31 µM in data set [1]; 0.34 µM in data set [2]; 11 µM in data set [4]; 59 µM in data set [5]; 50 µM in data set [7]. In addition, in data set [3], the half-maximal effective concentration (EC50) is 21 µM. The concentration giving a half-maximal response (EC50) at 48 h in data set [6] was 41 µM; in data set [8], 38 µM.
In the case of `N#Cc1ccc(S(=O)(=O)Nc2ccc(-c3nc4cc(NS(=O)(=O)c5ccc(C#N)cc5)ccc4o3)cc2)cc1`, the IC50 in data set [1] was > 250 µM; in data set [2] it was 37 µM; in data set [4] it was 64 µM; in data set [5], > 250 µM; in data set [7], > 63 µM. For the same compound, the 50% effective concentration (EC50) in data set [3] stood at 16 µM. The figures for the EC50 at 48 h in data set [6] and in data set [8] were 79 µM and 45 µM, respectively.
Turning to `Cc1ccccc1S(=O)(=O)Nc1ccc(-c2nc3cc(NS(=O)(=O)c4ccccc4C)ccc3o2)cc1`, the IC50 in data set [1] is 194 µM; in data set [2], > 100 µM; in data set [4] it was > 100 µM; in data set [5], > 250 µM; in data set [7], > 63 µM. The 50% effective concentration (EC50) in data set [3] was 1.8 µM. Also, the half-maximal effective concentration (EC50) at 48 h in data set [6] was found to be 17 µM; in data set [8], 25 µM.
For the compound `O=S(=O)(Nc1ccc(-c2nc3cc(NS(=O)(=O)c4ccc(F)cc4)ccc3o2)cc1)c1ccc(F)cc1`, the 50% inhibitory concentration (IC50) in data set [1] was 4.3 µM; in data set [2], 3.8 µM; in data set [4] it was > 100 µM; in data set [5], > 250 µM; in data set [7], > 63 µM. Besides, the half-maximal effective concentration (EC50) in data set [3] was 4.3 µM. For the same compound, the concentration for a half-maximal effect (EC50) at 48 h in data set [6] turned out to be 19 µM; in data set [8] it was 21 µM.
Take `COC(=O)c1ccccc1S(=O)(=O)Nc1ccc(-c2nc3cc(NS(=O)(=O)c4ccccc4C(=O)OC)ccc3o2)cc1`: the IC50 in data set [1] was 53 µM; in data set [2], 36 µM; in data set [4], > 100 µM; in data set [5], > 250 µM; in data set [7], > 63 µM. In addition, in data set [3], the EC50 was determined as 28 µM. Besides, the EC50 at 48 h in data set [6] and in data set [8] was > 100 µM each time.
For the compound `O=S(=O)(Nc1ccc(-c2nc3cc(NS(=O)(=O)c4cccc5nsnc45)ccc3o2)cc1)c1cccc2nsnc12`, the IC50 is 127 µM in data set [1]; 22 µM in data set [2]; 98 µM in data set [4]; 152 µM in data set [5]; > 63 µM in data set [7]. Also, in data set [3], the half-maximal effective concentration (EC50) is > 42 µM. Moreover, the EC50 at 48 h in data set [6] is > 100 µM; in data set [8], 52 µM.
